Tests used:
[1] = system: human colon cancer HT-29 cells; assay: CCK-8 cell viability assay, HT-29; format: cell-based; conditions: HT-29, normoxic and hypoxic, 48 h, Figure 5
Experimental: (§1) The MDA-MB-231, HT-29 and MG-63 cell lines were provided by KeyGEN BioTECH Ltd (Nanjing, Jiangsu, China). The cells were digested and counted to prepare a cell suspension of 5.0 × 10^4 cells/mL, and then 100 μL of cell suspension was added to each well of the 96-well cell culture plate. The plates were placed in a 37 °C, 5% CO2 incubator (Corning Incorporated, Corning, New York, USA) for 24 h. The drug was diluted with the culture medium to the required concentration, ed100 μL of the corresponding drug-containing medium was added to each well, and a negative control group was set up at the same time. The 96-well cell culture plates were placed into a normoxic incubator (37 °C, 5% CO2) and hypoxic incubator (37 °C, 5% CO2, 0.5% O2, 94.5% N2) for 48 h. Finally, the 96-well plate was stained with CCK-8 and the OD value determined (λ = 450 nm).

[2] = system: breast adenocarcinoma MDA-MB-231 cells; assay: CCK-8 cell viability assay, MDA-MB-231; format: cell-based, human; conditions: MDA-MB-231, normoxic and hypoxic, 48 h, Figure 5
Experimental: as §1

human osteosarcoma MG-63 = assay: CCK-8 cell viability assay, MG-63; format: cell-based; conditions: hypoxic conditions
Experimental: Then, considering the high inhibitory activity of 14a on the two isoforms of CA IX and XII, we evaluated the inhibitory activity of 14a on human osteosarcoma MG-63 featuring high expression of CA IX and XII.
as §1

hCA II = hCA II (Homo sapiens, UniProt P00918); assay: hCA II enzyme inhibition assay (4-NPA hydrolysis)
Experimental: (§4) Carbonic anhydrase can catalyze the hydrolysis of 4-nitrophenyl acetate (4-NPA). […] The experimental buffer consisted of 15 mmol/L 4-(2-hydroxyethyl)-1-piperazineethanesulfonic acid (HEPES) (pH = 7.40), 0.01% tetraethylene glycol monododecyl ether (Brij), and 100 mmol/L NaCl. […] Then, 18 μL of enzyme solution was transferred into 384-well plates in duplicate. Stock solutions of the inhibitors (10.0 mmol/L) were prepared using DMSO as solvent, and then diluted 1:3 with DMSO. […] Then 2.00 μL of each inhibitor was added to each well. All compounds were allowed to incubate with the enzyme for 15 min at 25 °C to form the Enzyme-Inhibitor (E-I) complex. After that, substrate 4-NPA (1.00 mmol/L, 20.00 μL, Sigma-Aldrich, St. Louis, MI, USA) was added into the E-I complex solution and incubated for 60, 90, 90 min at 25 °C, respectively.

hCA IX = hCA IX (Homo sapiens, UniProt Q16790); assay: hCA IX enzyme inhibition assay (4-NPA hydrolysis)
Experimental: as §4

hCA XII = hCA XII (Homo sapiens, UniProt O43570); assay: hCA XII enzyme inhibition assay (4-NPA hydrolysis)
Sequence of hCA XII (O43570 25-354): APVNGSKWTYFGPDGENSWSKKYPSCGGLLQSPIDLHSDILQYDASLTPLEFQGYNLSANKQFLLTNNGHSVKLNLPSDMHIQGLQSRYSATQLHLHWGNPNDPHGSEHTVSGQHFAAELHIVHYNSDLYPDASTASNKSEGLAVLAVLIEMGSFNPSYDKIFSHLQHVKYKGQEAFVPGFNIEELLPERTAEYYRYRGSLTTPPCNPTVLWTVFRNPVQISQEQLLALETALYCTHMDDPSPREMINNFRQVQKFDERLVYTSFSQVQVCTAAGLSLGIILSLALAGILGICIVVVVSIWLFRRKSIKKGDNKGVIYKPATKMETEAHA
Experimental: as §4

MDA-MB-231 = assay: Extracellular pH measurement, MDA-MB-231; format: cell-based, human; conditions: MDA-MB-231, 0.1 and 1 mM, normoxic and hypoxic, Figure 7
Experimental: (§2) The high expression of CA IX plays an important role in the maintenance of the tumor cell microenvironment, and inhibiting its activity might have a potential impact on the pH of the tumor microenvironment. To evaluate the effect of compounds on the pH of the microenvironment, the pH values under normoxic and hypoxic conditions were determined in the presence of compounds 14b, 14h, and 14p. […] In addition, this improvement in pH was dose-dependent.
(§3) The measurement of the change of extracellular pH referred to the reported literature. In brief, cancer cells were incubated for 12 h. After removing the medium, fresh medium was added to the plates and then incubated for 48 h under hypoxia or normoxia. The pH of the medium was measured immediately. The tested compounds were dissolved in DMSO and diluted with culture medium to the desired concentration. After the addition of tested compounds, the same procedure was repeated.

HT-29 = assay: Extracellular pH measurement, HT-29; format: cell-based, human; conditions: HT-29, 0.1 and 1 mM, normoxic and hypoxic, Figure 7
Experimental: as §2, §3

SMILES | inhibitory activity on cell viability compared with AZM [1] | inhibitory activity on cell viability compared with AZM [2] | effect on MG-63 viability compared with AZM (human osteosarcoma MG-63) | reduction of viability of MG-63 cells (human osteosarcoma MG-63; 800 μM, 48 h) | IC50 (hCA II) | IC50 (hCA IX) | IC50 (hCA XII) | effect on extracellular (tumor) pH (MDA-MB-231) | effect on extracellular (tumor) pH (HT-29)
NS(=O)(=O)c1nnc(NC(=O)c2ccc(NC(=O)CCCC(=O)N[C@@H]3O[C@H](CO)[C@@H](O)[C@H](O)[C@H]3O)cc2)s1 [Compound 14a, N^1-(4-((5-Sulfamoyl-1,3,4-thiadiazol-2-yl)carbamoyl)phenyl)-N^5-((2R,3R,4S,5S,6R)-3,4,5-trihydroxy-6-(hydroxymethyl)tetrahydro-2H-pyran-2-yl)glutaramide] | better than those of the positive control drug AZM | better than those of the positive control drug AZM | significantly better than that of the positive control AZM | approximately 30% | 141 ± 12.9 nM | 29 ± 4.2 nM | 141 ± 5.5 nM |  | 
NS(=O)(=O)c1nnc(NC(=O)c2cccc(NC(=O)CCCC(=O)N[C@@H]3O[C@H](CO)[C@@H](O)[C@H](O)[C@H]3O)c2)s1 [Compound 14b, N^1-(3-((5-Sulfamoyl-1,3,4-thiadiazol-2-yl)carbamoyl)phenyl)-N^5-((2R,3R,4S,5S,6R)-3,4,5-trihydroxy-6-(hydroxymethyl)tetrahydro-2H-pyran-2-yl)glutaramide] | better than those of the positive control drug AZM | better than those of the positive control drug AZM |  |  | 80.3 ± 11.5 nM | 29 ± 1.5 nM | 56 ± 8.5 nM | increased tumor pH to varying degrees | increased tumor pH to varying degrees
COc1cc(C(=O)Nc2nnc(S(N)(=O)=O)s2)ccc1NC(=O)CCCC(=O)N[C@@H]1O[C@H](CO)[C@@H](O)[C@H](O)[C@H]1O [Compound 14h, N^1-(2-Methoxy-4-((5-sulfamoyl-1,3,4-thiadiazol-2-yl)carbamoyl)phenyl)-N^5-((2R,3R,4S,5S,6R)-3,4,5-trihydroxy-6-(hydroxymethyl)tetrahydro-2H-pyran-2-yl)glutaramide] | better than those of the positive control drug AZM | better than those of the positive control drug AZM |  |  | 272 ± 9 nM | 68.8 ± 10.2 nM | 84.9 ± 7.6 nM | increased tumor pH to varying degrees | increased tumor pH to varying degrees
COc1cc(C(=O)Nc2nnc(S(N)(=O)=O)s2)ccc1NC(=O)CCC(=O)N[C@@H]1O[C@H](CO)[C@@H](O)[C@H](O)[C@H]1O [Compound 14p, N^1-(2-Methoxy-4-((5-sulfamoyl-1,3,4-thiadiazol-2-yl)carbamoyl)phenyl)-N^4-((2R,3R,4S,5S,6R)-3,4,5-trihydroxy-6-(hydroxymethyl)tetrahydro-2H-pyran-2-yl)succinimide] | better than those of the positive control drug AZM | better than those of the positive control drug AZM |  |  | 332 ± 16.8 nM | 47.9 ± 7.1 nM | 42.3 ± 9.4 nM | increased tumor pH to varying degrees | increased tumor pH to varying degrees

— article PMC8196973, “Synthesis, Molecular Docking Analysis and Biological Evaluations of Saccharide-Modified Thiadiazole Sulfonamide Derivatives” (International Journal of Molecular Sciences, 2021)
